Experimental data taken from patent publication US10550155B2, “Anticancer peptides” (priority 2018, dated 2020).
Like-named read-outs stand apart in the source and are kept apart here. Where a SMILES comes first, the peptide text is derived from it. Bridges are numbered along the chain shown (N, C = ends). Roman numbers before positions name the chains, in order. Where no end group is shown, it is not given here. [ ]: non-standard residue; d: D form.

Key:
[1] = system: HeLa cells; experiment: MTT cytotoxicity assay, HeLa cells; assay type: cell-based
Procedure: (§1) The cytotoxic as well as antiproliferative effect of peptides was determined using MTT [3-(4, 5-dimethylthiazol-2-yl)-2, 5-diphenyl tetrazolium bromide] colorimetric assay. MCF-7, NIH-3T3, HeLa and H460 cells were cultured and after confluency, cells were used to test the cytotoxicity by MTT assay. Briefly (3×10^4/mL) of MCF-7 and (2×10^4/mL) cells of NIH-3T3, HeLa and H460 were seeded in 96-wells plate and incubated at 37° C. in 5% CO2 for 24 h. The MCF-7 cells were then treated with different doses of peptides and re-incubated in 5% CO2 at 37° C. for 48 hours. […] Experiment was performed three times and all doses were repeated in triplicate and the calculations were done using formula for percent inhibition.

[2] = system: MCF-7 human breast cancer cell line; experiment: MTT cytotoxicity assay, MCF-7 cells; assay type: cell-based
Procedure: as §1

[3] = system: H460 cells; experiment: MTT cytotoxicity assay, H460 cells; assay type: cell-based
Procedure: as §1

[4] = system: DoHH2 cells (B-cell lymphoma); experiment: Alamar blue viability assay, DoHH2 cells; assay type: cell-based
Procedure: The viability of DoHH2 cells was determined by Alamar blue assay. Briefly 200 μl of 1×10^5 cells/ml were incubated with different concentrations of compounds for 24 hours. A one-tenth volume of Alamar blue was then added and the incubation continued for 4 hrs. Absorbance was read in spectrophotometer at wavelengths of 570 nm and 600 nm.

[5] = system: NIH-3T3 murine fibroblast cell line; experiment: MTT cytotoxicity assay, 3T3 cells; assay type: cell-based, mouse
Procedure: as §1

[6] = MTT cytotoxicity assay, 3T3 cells; assay type: cell-based, mouse; conditions: mouse; for IC50: Cytotoxicity IC50, 3T3
Procedure: as §1

[7] = system: THP-1 monocytes; conditions: cited from earlier work
[8] = system: Leishmania infantum promastigote and amastigote; conditions: cited from earlier work
[9] = system: human erythrocytes; conditions: cited from earlier work
[10] = system: fibroblasts; conditions: cited from earlier work
[11] = system: THP-1-derived macrophages; conditions: cited from earlier work
[12] = system: bacteria, yeasts, fungi, and protozoa; conditions: cited from earlier work
[13] = system: MCF-7 cells; experiment: Cell-growth on bead assay; assay type: cell-based, human; conditions: peptide on bead
[14] = system: HepG2 cells; conditions: cited from earlier work
[15] = MTT, 48 hours, read-out: Cytotoxicity IC50, H460
[16] = MTT, 48 hours, read-out: Cytotoxicity IC50, HeLa
[17] = MTT, 48 hours, read-out: Cytotoxicity IC50, MCF-7
[18] = Alamar blue, 24 hours, read-out: Cytotoxicity IC50, DoHH2

COc1cccc2c1C(=O)c1c(O)c3c(c(O)c1C2=O)C[C@@](O)(C(=O)CO)C[C@@H]3O[C@H]1C[C@H](N)[C@H](O)[C@H](C)O1 [Doxorubicin, reference compound]
IC50 ([1]; Homo sapiens, HeLa, 48 h, read-out: Cytotoxicity IC50, HeLa): 5.7 ± 0.36 µM | IC50 ([2]; Homo sapiens, MCF7, 48 h, read-out: Cytotoxicity IC50, MCF-7): 1.6 ± 0.2 µM

CC[C@H](C)[C@H](NC(=O)[C@@H](C)NC(=O)[C@H](CO)NC(=O)[C@H](CC(C)C)NC(=O)[C@@H](N)Cc1ccccc1)C(=O)N[C@H](C(=O)NCC(=O)N[C@@H](CCSC)C(=O)N[C@@H](CC(C)C)C(=O)NCC(=O)N[C@@H](CCCCN)C(=O)N[C@@H](CC(C)C)C(=O)N[C@@H](Cc1ccccc1)C(N)=O)C(C)C [compound 2, F-L-S-a-I-V-G-M-L-G-K-L-F] (H-FLS[dA]IVGMLGKLF-NH2)
IC50 [3, 15]: > 100 µM | IC50 [1, 16]: > 100 µM | IC50 [2, 17]: 17.9 ± 1.1 µM | IC50 [4, 18]: > 100 µM | Cytotoxicity against 3T3 cell line (in words) [5]: inactive | IC50 [6]: > 100 µM

CC[C@H](C)[C@H](NC(=O)CNC(=O)[C@H](CO)NC(=O)[C@H](CC(C)C)NC(=O)[C@@H](N)Cc1ccccc1)C(=O)N[C@H](C(=O)N[C@H](C)C(=O)N[C@@H](CCSC)C(=O)N[C@@H](CC(C)C)C(=O)NCC(=O)N[C@@H](CCCCN)C(=O)N[C@@H](CC(C)C)C(=O)N[C@@H](Cc1ccccc1)C(N)=O)C(C)C [compound 3, F-L-S-G-I-V-a-M-L-G-K-L-F] (H-FLSGIV[dA]MLGKLF-NH2)
IC50 ([3]; human, 48 h): > 100 µM | IC50 ([1]; human, 48 h): > 100 µM | IC50 ([2]; human, 48 h): 22.4 ± 2.2 µM | IC50 ([4]; human, 24 h): > 100 µM | Cytotoxicity against 3T3 cell line (in words) [5]: inactive | IC50 at 48 h [6]: > 100 µM

CC[C@H](C)[C@H](NC(=O)[C@@H](C)NC(=O)[C@H](CO)NC(=O)[C@H](CC(C)C)NC(=O)[C@@H](N)Cc1ccccc1)C(=O)N[C@H](C(=O)N[C@H](C)C(=O)N[C@@H](CCSC)C(=O)N[C@@H](CC(C)C)C(=O)NCC(=O)N[C@@H](CCCCN)C(=O)N[C@@H](CC(C)C)C(=O)N[C@@H](Cc1ccccc1)C(N)=O)C(C)C [compound 5, F-L-S-a-I-V-a-M-L-G-K-L-F] (H-FLS[dA]IV[dA]MLGKLF-NH2)
IC50 ([3]; human, 48 h): 37.3 ± 3.5 µM | IC50 ([1]; human, 48 h): > 100 µM | IC50 ([2]; human, 48 h): 29.5 ± 6.03 µM | IC50 ([4]; human, 24 h): > 100 µM | Cytotoxicity against 3T3 cell line (in words) [5]: no cytotoxicity | IC50 at 48 h [6]: > 100 µM

CC[C@H](C)[C@H](NC(=O)[C@@H](C)NC(=O)[C@H](CO)NC(=O)[C@H](CC(C)C)NC(=O)[C@@H](N)Cc1ccccc1)C(=O)N[C@H](C(=O)N[C@H](C)C(=O)N[C@@H](CCSC)C(=O)N[C@@H](CC(C)C)C(=O)N[C@H](C)C(=O)N[C@@H](CCCCN)C(=O)N[C@@H](CC(C)C)C(=O)N[C@@H](Cc1ccccc1)C(N)=O)C(C)C [compound 6, F-L-S-a-I-V-a-M-L-a-K-L-F] (H-FLS[dA]IV[dA]ML[dA]KLF-NH2)
IC50 ([3]; human, 48 h): > 100 µM | IC50 ([1]; human, 48 h): > 100 µM | IC50 ([2]; human, 48 h): 26.3 ± 5.8 µM | IC50 ([4]; human, 24 h): > 100 µM | Cytotoxicity against 3T3 cell line (in words) [5]: inactive | IC50 at 48 h [6]: > 100 µM

CC[C@H](C)[C@H](NC(=O)CNC(=O)[C@H](CO)NC(=O)[C@H](CC(C)C)NC(=O)[C@@H](N)Cc1ccccc1)C(=O)N[C@H](C(=O)NCC(=O)N[C@@H](CCSC)C(=O)N[C@@H](CC(C)C)C(=O)N[C@H](C)C(=O)N[C@@H](CCCCNC(=O)[C@H](CC(C)C)NC(=O)[C@H](Cc1ccccc1)NC(=O)[C@H](CCCCN)NC(=O)[C@H](CCC(N)=O)NC(=O)[C@H](Cc1ccc(O)cc1)NC(=O)[C@H](C)NC(=O)[C@H](C)NC(=O)[C@H](CCC(=O)O)NC(=O)[C@H](CC(C)C)NC(=O)[C@@H](N)Cc1c[nH]c2ccccc12)C(=O)N[C@@H](CC(C)C)C(=O)N[C@@H](Cc1ccccc1)C(N)=O)C(C)C [conjugate 7] (I: H-FLSGIVGML[dA]KLF-NH2 / II: H-WLEAAYQKFL; amide I:11-II:C)
IC50 ([3]; human, 48 h): > 100 µM | IC50 ([1]; human, 48 h): > 100 µM | IC50 ([4]; human, 24 h): > 100 µM | IC50 at 48 h [6]: > 100 µM

CC[C@H](C)[C@H](NC(=O)CNC(=O)[C@H](CO)NC(=O)[C@H](CC(C)C)NC(=O)[C@@H](N)Cc1ccccc1)C(=O)N[C@H](C(=O)NCC(=O)N[C@@H](CCSC)C(=O)N[C@@H](CC(C)C)C(=O)N[C@H](C)C(=O)N[C@@H](CCCCN)C(=O)N[C@@H](CC(C)C)C(=O)N[C@@H](Cc1ccccc1)C(=O)N[C@@H](CCCCNC(=O)[C@H](CCCCNC(=O)[C@H](CC(C)C)NC(=O)[C@H](Cc1ccccc1)NC(=O)[C@H](CCCCN)NC(=O)[C@H](CCC(N)=O)NC(=O)[C@H](Cc1ccc(O)cc1)NC(=O)[C@H](C)NC(=O)[C@H](C)NC(=O)[C@H](CCC(=O)O)NC(=O)[C@H](CC(C)C)NC(=O)[C@@H](N)Cc1c[nH]c2ccccc12)NC(=O)[C@H](Cc1ccccc1)NC(=O)[C@H](CC(C)C)NC(=O)[C@H](CCCCN)NC(=O)[C@@H](C)NC(=O)[C@H](CC(C)C)NC(=O)[C@H](CCSC)NC(=O)CNC(=O)[C@@H](NC(=O)[C@@H](NC(=O)CNC(=O)[C@H](CO)NC(=O)[C@H](CC(C)C)NC(=O)[C@@H](N)Cc1ccccc1)[C@@H](C)CC)C(C)C)C(N)=O)C(C)C [conjugate 8] (I: H-FLSGIVGML[dA]KLFK-NH2 / II: H-FLSGIVGML[dA]KLFK / III: H-WLEAAYQKFL; amide I:14-II:C, II:14-III:C (inferred); N-terminus assumed)
Activity against H460 cell line (in words) ([3]; MTT): active | IC50 ([3]; human, 48 h): 14.3 ± 0.7 µM | Activity against HeLa cell line (in words) ([1]; MTT): active | IC50 ([1]; human, 48 h): 8.7 ± 0.65 µM | IC50 ([2]; human, 48 h): 1.7 µM | IC50 ([4]; human, 24 h): > 100 µM | Cytotoxicity against 3T3 cell line (in words) [5]: no cytotoxicity | IC50 at 48 h [6]: > 100 µM

CC[C@H](C)[C@H](NC(=O)CNC(=O)[C@H](CO)NC(=O)[C@H](CC(C)C)NC(=O)[C@@H](N)Cc1ccccc1)C(=O)N[C@H](C(=O)NCC(=O)N[C@@H](CCSC)C(=O)N[C@@H](CC(C)C)C(=O)NCC(=O)N[C@@H](CCCCN)C(=O)N[C@@H](CC(C)C)C(=O)N[C@@H](Cc1ccccc1)C(N)=O)C(C)C [peptide 1, F-L-S-G-I-V-G-M-L-G-K-L-F, reference compound] (H-FLSGIVGMLGKLF-NH2)
Cytotoxicity on THP-1 monocytes (literature) [7]: low cytotoxicity | Activity against H460 cell line (in words) ([3]; MTT): active | IC50 [3, 15]: 34.5 ± 1.5 µM | Antiparasitic activity (literature) [8]: antiparasitic activity | Activity against HeLa cell line (in words) ([1]; MTT): active | IC50 [1, 16]: 18.4 ± 0.92 µM | Activity against MCF-7 cell line (in words) ([2]; MTT): active | IC50 [2, 17]: 14.5 ± 0.57 µM | Activity against DoHH2 cell line (in words) ([4]; Alamar blue): no cytotoxicity | IC50 [4, 18]: > 100 µM | Cytotoxicity on human erythrocytes (literature) [9]: low cytotoxicity | Cytotoxicity on fibroblasts (literature) [10]: no cytotoxicity | IC50 [6]: 73.3 ± 0.07 µM | Cytotoxicity on THP-1-derived macrophages (literature) [11]: low cytotoxicity | Antimicrobial / antibacterial activity (literature) [12]: potent inhibitor

CC[C@H](C)[C@H](NC(=O)CNC(=O)[C@H](CO)NC(=O)[C@H](CC(C)C)NC(=O)[C@@H](N)Cc1ccccc1)C(=O)N[C@H](C(=O)NCC(=O)N[C@@H](CCSC)C(=O)N[C@@H](CC(C)C)C(=O)N[C@H](C)C(=O)N[C@@H](CCCCN)C(=O)N[C@@H](CC(C)C)C(=O)N[C@@H](Cc1ccccc1)C(N)=O)C(C)C [peptide 4, F-L-S-G-I-V-G-M-L-a-K-L-F] (H-FLSGIVGML[dA]KLF-NH2)
IC50 ([3]; MTT, 48 hours, listed as SEQ ID NO: 4, read-out: Cytotoxicity IC50, H460): 16 to 24 µM | IC50 [3, 15]: 24.3 ± 0.84 µM | IC50 ([1]; MTT, 48 hours, listed as SEQ ID NO: 4, read-out: Cytotoxicity IC50, HeLa): 16 to 24 µM | IC50 [1, 16]: 22.7 ± 0.86 µM | IC50 ([2]; MTT, 48 hours, listed as SEQ ID NO: 4, read-out: Cytotoxicity IC50, MCF-7): 16 to 24 µM | IC50 [2, 17]: 16.2 ± 2.2 µM | IC50 [4, 18]: > 100 µM | Cytotoxicity against 3T3 cell line (in words) [5]: cytotoxic | IC50 ([5]; mouse): 16 ± 3.7 µM | IC50 [6]: 16 to 24 µM

WLEAAYQKFL (not fully specified) [peptide A, breast cancer targeting peptide ligand]
Binding to MCF-7 cells [13]: strong binding

[A^2,6,9, K^3] temporin-SHa [[A^2,6,9, K^3] SHa]
Cytotoxicity on THP-1 monocytes (literature) [7]: inactive | Antiparasitic activity (literature) [8]: lack the antibacterial and antiparasitic activity | Antimicrobial / antibacterial activity (literature) [12]: lack the antibacterial and antiparasitic activity | Cytotoxicity on HepG2 cells (literature) [14]: inactive

[A^2,6,9] temporin-SHa [[A^2,6,9] SHa]
Cytotoxicity on THP-1 monocytes (literature) [7]: inactive | Antiparasitic activity (literature) [8]: lack the antibacterial and antiparasitic activity | Antimicrobial / antibacterial activity (literature) [12]: lack the antibacterial and antiparasitic activity | Cytotoxicity on HepG2 cells (literature) [14]: inactive

[K^3] temporin-SHa
Antimicrobial / antibacterial activity (literature) [12]: more potent antimicrobial activity than temporin-SHa
